Broadly, the IC50 is the midpoint of a concentration-inhibition curve. A higher IC50 goes with a need for much substance.

Experiment [1] concerns DoHH2 cells. As to the kind of experiment: Cell proliferation assay, DoHH2 cells (MTS, 120 h). Type of experiment: cell-based. Conditions: Homo sapiens, DOHH-2. A digest of the protocol: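 DoHH2 cells in RPMI-1640 with 10% FBS were plated at 5000/well and rested 4 h. They were then exposed to compound at nine final concentrations (10000 to 1.5 nM) for 120 h at 37 °C. Viability was read by MTS (2 h, A490) and IC50 derived by curve fitting.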

The test system of experiment [2] is RS4;11 cells. As to the kind of experiment: Cell proliferation assay, RS4;11 cells (MTS, 72 h). Type of experiment: cell-based. Conditions: Homo sapiens, RS4;11 cell proliferation. The protocol: MTS testing kit was purchased from Promega. The RPMI-1640, Fetal bovine serum and Penicillin-Streptomycin were purchased from Gibco. Dimethyl sulfoxide (DMSO) was purchased from Sigma.
To investigate whether a compound is able to inhibit the activity of Bcl-2 in cells, a mechanism-based assay using RS4;11 (ATCC® CRL-1873™) cell was developed. In this assay, inhibition of Bcl-2 was detected by the inhibition of RS4;11 cells proliferation. RS4;11 cells were cultured in culture flasks to 40-80% confluence in RPMI-1640 plus 10% fetal bovine serum. Cells were collected and plated onto 96-well plates at desired cell density (30000 cells/well). Plates were incubated overnight at 37° C., with 5% CO2 to adhere. Compounds were added to the plates, and the final compound concentrations were 10000, 3333, 1111, […], 41, 14, 4.6 and 1.5 nM. Plates plated with RS4;11 cells were placed at 37° C., with 5% CO2 for 72 h. 20 μl MTS/100 μl medium mixture solution were added to each well and incubate the plates for exactly 2 hours. The reaction was stopped by adding 25 μl 10% SDS per well. Measure absorbance at 490 nm and 650 nm (reference wavelength). IC50 was calculated using GraphPad Prism 5.0.

In the case of `O=C(NS(=O)(=O)c1cc([N+](=O)[O-])c2c(n1)OC[C@H](Cc1ccccn1)N2)c1ccc(N2CCC3(CC2)CC(N2CCC[C@H]2c2ccccc2C2CC2)C3)cc1Oc1cnc2[nH]ccc2c1` (single isomer, unassigned) [Example B-45, 2-((1H-pyrrolo[2,3-b]pyridin-5-yl)oxy)-4-(2-((R or S)-2-(2-cyclopropylphenyl)pyrrolidin-1-yl)-7-azaspiro[3.5]nonan-7-yl)-N-(((S)-8-nitro-2-(pyridin-2-ylmethyl)-2,3-dihydro-1H-pyrido [2,3-b][1,4]oxazin-6-yl)sulfonyl) benzamide], the IC50 in experiment [1] and in experiment [2] was at most 1 nM throughout.
`CC(C)c1ccccc1C1CCCN1C1CC2(CCN(c3ccc(C(=O)NS(=O)(=O)c4cc([N+](=O)[O-])c5c(n4)OC[C@H](C4CC4)N5)c(Oc4cnc5[nH]ccc5c4)c3)CC2)C1` (single isomer, unassigned) [Example B-31a, 2-((1H-pyrrolo[2,3-b]pyridin-5-yl)oxy)-N-(((S)-2-cyclopropyl-8-nitro-2,3-dihydro-1H-pyrido[2,3-b] [1,4]oxazin-6-yl)sulfonyl)-4-(2-((R or S)-2-(2-isopropylphenyl)pyrrolidin-1-yl)-7-azaspiro[3.5]nonan-7-yl)benzamide]: the IC50 in experiment [1] and in experiment [2] was at most 1 nM in each case.
Consider `CCc1ccccc1[C@H]1CCCN1C1CC2(CCN(c3ccc(C(=O)NS(=O)(=O)c4cnc(NCC5CCC(N=S6(=O)CCOCC6)CC5)c([N+](=O)[O-])c4)c(Oc4cnc5[nH]ccc5c4)c3)CC2)C1` (stereo partly drawn) [Example A-21b, (R)-2-((1H-pyrrolo[2,3-b]pyridin-5-yl)oxy)-4-(2-(2-(2-ethylphenyl)pyrrolidin-1-yl)-7-azaspiro[3.5]nonan-7-yl)-N-((5-nitro-6-(((4-((4-oxido-1,4λ^6-oxathian-4-ylidene)amino)cyclohexyl)methyl)amino)pyridin-3-yl)sulfonyl)benzamide], for which the IC50 in experiment [1] and in experiment [2] was at most 1 nM each time.
Consider `O=C(NS(=O)(=O)c1cnc(NCC2(F)CCOCC2)c([N+](=O)[O-])c1)c1ccc(N2CCC3(CC2)CC(N2CCC[C@H]2c2ccccc2C2CC2)C3)cc1Oc1cnc2[nH]ccc2c1` [Example A-32a, (S)-2-((1H-pyrrolo[2,3-b]pyridin-5-yl)oxy)-4-(2-(2-(2-cyclopropyl-phenyl)pyrrolidin-1-yl)-7-azaspiro [3.5]nonan-7-yl)-N-((6-(((4-fluoro-tetrahydro-2H-pyran-4-yl)methyl)amino)-5-nitropyridin-3-yl)sulfonyl)benzamide], for which the IC50 in experiment [1] and in experiment [2] was at most 1 nM each time.
In experiment [2], `CC(C)c1ccccc1[C@@H]1CCCN1C1CC2(CCN(c3ccc(C(=O)NS(=O)(=O)c4cnc(NCC5CCC(C)(O)CC5)c([N+](=O)[O-])c4)c(Oc4cnc5[nH]ccc5c4)c3)CC2)C1` (stereo partly shown) [Example A-6a, (5)-2-((1H-pyrrolo[2,3-b]pyridin-5-yl)oxy)-N-((6-(((4-hydroxy-4-methylcyclohexyl)methyl)amino)-5-nitropyridin-3-yl)sulfonyl)-4-(2-(2-(2-isopropylphenyl)pyrrolidin-1-yl)-7-azaspiro[3.5]nonan-7-yl) benzamide] displayed an IC50 of at most 1 nM.
`CC1(O)CCC(CNc2ncc(S(=O)(=O)NC(=O)c3ccc(N4CCC5(CC4)CC(N4CCC[C@H]4c4ccccc4C4CC4)C5)cc3Oc3cnc4[nH]ccc4c3)cc2[N+](=O)[O-])CC1` (stereo partly drawn) [Example A-1a, (S)-2-((1H-pyrrolo[2,3-b]pyridin-5-yl)oxy)-4-(2-(2-(2-cyclopropylphenyl)pyrrolidin-1-yl)-7-azaspiro[3.5]nonan-7-yl)-N-((6-(((4-hydroxy-4-methylcyclohexyl)methyl)amino)-5-nitropyridin-3-yl)sulfonyl)benzamide] came in with an IC50 in experiment [2] of at most 1 nM.

Values taken from patent US20230159527A1, “COMPOUNDS AS BCL-2 INHIBITORS” (Fochon Pharmaceuticals, Ltd., priority 2020, published 2023).
